Test results reported in patent publication US12590091B2, “1H-pyrrolo[3,2-C]pyridine and 1H-pyrrolo[2,3-C]pyridine derivatives as TLR9 inhibitors for the treatment of fibrosis” (BRISTOL-MYERS SQUIBB COMPANY, priority 2020, dated 2026).

Experiments:
human TLR7 = biological target: T1, human TLR7 (Homo sapiens, UniProt Q9NYK1); test: TLR7 inhibition reporter assay (HEK-Blue cells, SEAP reporter); format: cell-based; settings: HEK-Blue cells overexpressing human TLR7, stimulated with gardiquimod 7.5 μM, 22 hour incubation
T1 construct: host or cells: HEK-Blue cells
T1 sequence (Q9NYK1 27-1049): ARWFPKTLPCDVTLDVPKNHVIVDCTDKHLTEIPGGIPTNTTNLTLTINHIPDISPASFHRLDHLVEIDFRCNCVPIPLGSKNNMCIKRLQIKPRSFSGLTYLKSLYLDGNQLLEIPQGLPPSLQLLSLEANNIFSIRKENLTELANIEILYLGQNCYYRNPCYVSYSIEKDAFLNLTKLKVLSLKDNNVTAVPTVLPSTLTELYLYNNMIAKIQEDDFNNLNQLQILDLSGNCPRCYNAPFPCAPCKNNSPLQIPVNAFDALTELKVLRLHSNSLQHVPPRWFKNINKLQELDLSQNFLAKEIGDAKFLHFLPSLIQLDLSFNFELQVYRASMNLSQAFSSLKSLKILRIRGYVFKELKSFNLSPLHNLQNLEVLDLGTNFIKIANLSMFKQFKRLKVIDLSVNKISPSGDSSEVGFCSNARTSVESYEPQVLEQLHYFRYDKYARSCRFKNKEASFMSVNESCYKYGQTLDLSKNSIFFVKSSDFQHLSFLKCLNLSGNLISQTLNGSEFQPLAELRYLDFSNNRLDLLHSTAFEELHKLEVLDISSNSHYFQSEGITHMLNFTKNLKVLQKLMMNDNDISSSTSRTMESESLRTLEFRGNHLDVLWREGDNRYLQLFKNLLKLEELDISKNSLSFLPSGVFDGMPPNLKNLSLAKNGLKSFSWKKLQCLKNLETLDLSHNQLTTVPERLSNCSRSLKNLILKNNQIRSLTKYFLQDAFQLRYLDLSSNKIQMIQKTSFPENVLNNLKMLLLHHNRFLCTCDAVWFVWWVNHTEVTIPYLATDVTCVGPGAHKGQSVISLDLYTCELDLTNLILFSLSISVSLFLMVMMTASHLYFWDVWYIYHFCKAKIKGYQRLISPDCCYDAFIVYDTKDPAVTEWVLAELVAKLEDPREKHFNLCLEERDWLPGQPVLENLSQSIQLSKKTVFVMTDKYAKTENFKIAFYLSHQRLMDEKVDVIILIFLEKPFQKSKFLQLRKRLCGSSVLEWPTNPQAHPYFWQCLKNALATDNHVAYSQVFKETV
Procedure: (§1) TLR7/8/9 Inhibition Reporter Assays
(§2) HEK-Blue™-cells (Invivogen) overexpressing human TLR7, TLR8 or TLR9 receptors were used for screening inhibitors of these receptors using an inducible SEAP (secreted embryonic alkaline phosphatase) reporter gene under the control of the IFN-β minimal promoter fused to five NF-κB and AP-1-binding sites. Briefly, cells are seeded into Greiner 384 well plates (15000 cells per well for TLR7, 20,000 for TLR8 and 25,000 for TLR9) and then treated with test compounds in DMSO to yield a final dose response concentration range of 0.05 nM-50 μM. After a 30 minute compound pre-treatment at room temperature, the cells are then stimulated with a TLR7 ligand (gardiquimod at a final concentration of 7.5 μM), TLR8 ligand (R848 at a final concentration of 15.9 μM) or TLR9 ligand (ODN2006 at a final concentration of 5 nM) to activate NF-κB and AP-1 which induce the production of SEAP. After a 22 hour incubation at 37° C., 5% CO2, SEAP levels are determined with the addition of HEK-Blue™ Detection reagent (Invivogen), a cell culture medium that allows for detection of SEAP, according to manufacturer's specifications. The percent inhibition is determined as the % reduction in the HEK-Blue signal present in wells treated with agonist plus DMSO alone compared to wells treated with a known inhibitor.

human TLR9 = biological target: T2, human TLR9 (Homo sapiens, UniProt Q9NR96); test: TLR9 inhibition reporter assay (HEK-Blue cells, SEAP reporter); format: cell-based; settings: HEK-Blue cells overexpressing human TLR9, stimulated with ODN2006 5 nM, 22 hour incubation
T2 construct: host or cells: HEK-Blue cells
T2 sequence (Q9NR96 26-1032): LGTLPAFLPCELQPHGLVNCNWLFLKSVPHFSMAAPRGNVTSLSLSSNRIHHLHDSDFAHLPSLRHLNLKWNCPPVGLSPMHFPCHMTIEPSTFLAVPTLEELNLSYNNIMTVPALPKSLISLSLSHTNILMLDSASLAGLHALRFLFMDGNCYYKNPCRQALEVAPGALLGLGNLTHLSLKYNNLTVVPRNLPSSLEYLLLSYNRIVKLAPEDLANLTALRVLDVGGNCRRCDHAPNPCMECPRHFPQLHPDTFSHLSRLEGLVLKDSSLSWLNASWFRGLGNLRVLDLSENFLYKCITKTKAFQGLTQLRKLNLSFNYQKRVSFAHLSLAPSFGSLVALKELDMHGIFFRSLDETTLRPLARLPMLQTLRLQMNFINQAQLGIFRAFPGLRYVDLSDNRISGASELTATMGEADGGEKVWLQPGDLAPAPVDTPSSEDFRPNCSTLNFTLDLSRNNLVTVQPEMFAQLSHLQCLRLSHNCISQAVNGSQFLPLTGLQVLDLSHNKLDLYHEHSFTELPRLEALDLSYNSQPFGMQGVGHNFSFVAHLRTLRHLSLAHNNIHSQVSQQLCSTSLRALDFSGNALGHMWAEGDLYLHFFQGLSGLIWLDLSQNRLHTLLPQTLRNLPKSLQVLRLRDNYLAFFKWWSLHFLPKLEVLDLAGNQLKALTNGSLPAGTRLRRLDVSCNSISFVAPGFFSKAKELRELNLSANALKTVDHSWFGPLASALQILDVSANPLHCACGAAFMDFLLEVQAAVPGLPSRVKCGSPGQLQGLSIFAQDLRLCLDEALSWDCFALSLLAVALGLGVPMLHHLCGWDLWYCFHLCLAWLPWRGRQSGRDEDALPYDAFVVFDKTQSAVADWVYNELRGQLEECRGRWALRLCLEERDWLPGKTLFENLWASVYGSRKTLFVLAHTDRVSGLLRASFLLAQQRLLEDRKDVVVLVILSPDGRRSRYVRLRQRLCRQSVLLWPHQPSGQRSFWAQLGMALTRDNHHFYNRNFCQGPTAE
Procedure: as §1
as §2, with “After a 30 minute compound pre-treatment at room temperature, the cells are then stimulated with a TLR7 ligand (gardiquimod at a final concentration of 7.5 μM), TLR8 ligand (R848 at a final concentration of 15.9 μM) or TLR9 ligand (ODN2006 at a final concentration of 5 nM) to activate NF-κB and AP-1 which induce the production of SEAP.” left out

| SMILES | IC50 (human TLR7) | IC50 (human TLR9) |
| --- | --- | --- |
| Cc1nc(-c2ccc(C3(O)CCN(C4CC4)CC3)cc2)cc2c1cc(-c1ccc(S(C)(=O)=O)cc1)n2C [Example 87, 1-cyclopropyl-4-(4-(1,4-dimethyl-2-(4-(methylsulfonyl)phenyl)-1H-pyrrolo[3,2-c]pyridin-6-yl)phenyl)piperidin-4-ol] | 2200 nM | 73 nM |
| COc1ccc(-c2cc3cnc(-c4ccc(N5CCN(CC6CC6)CC5)cc4)cc3n2C)cc1OC [Example 9, 6-(4-(4-(Cyclopropylmethyl)piperazin-1-yl)phenyl)-2-(3,4-dimethoxyphenyl)-1-methyl-1H-pyrrolo[3,2-c]pyridine] | 2900 nM | 21 nM |
| COc1ccc(-c2c(C)[nH]c3cnc(C4CCN(C(=O)CN5CCCC5)CC4)cc23)cc1OC [Example 21, 1-(4-(3-(3,4-dimethoxyphenyl)-2-methyl-1H-pyrrolo[2,3-c]pyridin-5-yl)piperidin-1-yl)-2-(pyrrolidin-1-yl)ethan-1-one] | 26000 nM | 603 nM |
| CC(C)(O)CN1CCN(Cc2ccc(-c3cc4c(cn3)cc(-c3ccc(S(C)(=O)=O)cc3)n4C3CC3)cc2)CC1 [Example 128, 1-(4-(4-(1-cyclopropyl-2-(4-(methylsulfonyl)phenyl)-1H-pyrrolo[3,2-c]pyridin-6-yl)benzyl)piperazin-1-yl)-2-methylpropan-2-ol] | 2800 nM | 115 nM |
| Cc1nc(-c2ccc(N3CCN(CC(C)C)CC3)cc2)cc2c1cc(-c1ccc(S(C)(=O)=O)cc1)n2C [Example 34, 6-(4-(4-isobutylpiperazin-1-yl)phenyl)-1,4-dimethyl-2-(4-(methylsulfonyl)phenyl)-1H-pyrrolo[3,2-c]pyridine] | 2200 nM | 10 nM |
| Cc1nc(-c2ccc(CN3CCN(CC(C)(C)O)CC3)cc2)cc2c1c(F)c(-c1ccc(S(C)(=O)=O)cc1)n2C [Example 122, 1-(4-(4-(3-fluoro-1,4-dimethyl-2-(4-(methylsulfonyl)phenyl)-1H-pyrrolo[3,2-c]pyridin-6-yl)benzyl)piperazin-1-yl)-2-methylpropan-2-ol] | 17100 nM | 103 nM |
| Cc1nc(-c2ccc(CN3CCN(CC(C)(C)O)CC3)cc2)cc2c1cc(-c1ccc(S(C)(=O)=O)cc1)n2C1CC1 [Example 123, 1-(4-(4-(1-cyclopropyl-4-methyl-2-(4-(methylsulfonyl)phenyl)-1H-pyrrolo[3,2-c]pyridin-6-yl)benzyl)piperazin-1-yl)-2-methylpropan-2-ol] | 3700 nM | 85 nM |
| Cc1nc(-c2ccc(CN3CCN(CCC(C)(C)O)CC3)cc2)cc2c1c(F)c(-c1ccc(S(C)(=O)=O)cc1)n2C [Example 115, 4-(4-(4-(3-fluoro-1,4-dimethyl-2-(4-(methylsulfonyl)phenyl)-1H-pyrrolo[3,2-c]pyridin-6-yl)benzyl)piperazin-1-yl)-2-methylbutan-2-ol] | 16000 nM | 615 nM |
| Cc1nc(-c2ccc(N3CC4CCC(C3)N4CCCO)cc2)cc2c1cc(-c1ccc(S(C)(=O)=O)cc1)n2C [Example 76, 3-(3-(4-(1,4-dimethyl-2-(4-(methylsulfonyl)phenyl)-1H-pyrrolo[3,2-c]pyridin-6-yl)phenyl)-3,8-diazabicyclo[3.2.1]octan-8-yl)propan-1-ol] | 600 nM | 53 nM |
| CCOC(=O)N1CCC(N2CCC(c3cc4c(-c5ccc(OC)c(OC)c5)c(C)n(C)c4cn3)CC2)CC1 [Example 20, ethyl 4-(3-(3,4-dimethoxyphenyl)-1,2-dimethyl-1H-pyrrolo[2,3-c]pyridin-5-yl)-[1,4′-bipiperidine]-1′-carboxylate] | 9200 nM | 153 nM |
| COc1ccc(-c2c(C)n(C)c3cnc(C4CCN(C5CCN(CC(C)C)CC5)CC4)cc23)cc1OC [Example 17, 3-(3,4-dimethoxyphenyl)-5-(1′-isobutyl-[1,4′-bipiperidin]-4-yl)-1,2-dimethyl-1H-pyrrolo[2,3-c]pyridine] | 2300 nM | 19 nM |
| COCCN1C2CCC1CN(c1ccc(-c3cc4c(cc(-c5ccc(S(C)(=O)=O)cc5)n4C)c(C)n3)cc1)C2 [Example 74, 6-(4-(8-(2-methoxyethyl)-3,8-diazabicyclo[3.2.1]octan-3-yl)phenyl)-1,4-dimethyl-2-(4-(methylsulfonyl)phenyl)-1H-pyrrolo[3,2-c]pyridine] | 1600 nM | 58 nM |
| Cc1nc(-c2ccc([C@@]3(O)CCN(C(C)C)C(C)(C)C3)c(F)c2)cc2c1cc(-c1ccc(S(C)(=O)=O)cc1)n2C [Example 105, (R)-4-(4-(1,4-dimethyl-2-(4-(methylsulfonyl)phenyl)-1H-pyrrolo[3,2-c]pyridin-6-yl)-2-fluorophenyl)-1-isopropyl-2,2-dimethylpiperidin-4-ol] | 1100 nM | 52 nM |
| CC(C)N1CCN(c2ccc(-c3cc4c(cc(-c5ccc(S(C)(=O)=O)cc5)n4C)c(C(C)(C)O)n3)cc2)CC1 [Example 118, 2-[6-[4-(4-isopropylpiperazin-1-yl)phenyl]-1-methyl-2-(4-methylsulfonylphenyl)pyrrolo[3,2-c]pyridin-4-yl]propan-2-ol] | 1700 nM | 57 nM |
| COc1ccc(-c2c(C)[nH]c3cnc(C4CCN(C5CCN(C(=O)OCc6ccccc6)CC5)CC4)cc23)cc1OC [Example 4, Benzyl 4-(3-(3,4-dimethoxyphenyl)-2-methyl-1H-pyrrolo[2,3-c]pyridin-5-yl)-[1,4′-bipiperidine]-1′-carboxylate] | 9500 nM | 243 nM |
